The text below walks through data of PubChem BioAssay AID2060509 (Molecular Pharmacology Branch, DTP, NCI, 2025).

Several values for one entry are separate records, joined by “and”; a condition that tells them apart may be missing. Identical values can stand only once.

The subject of the assay is 485176-168-R4-J1-PDC spheroids with HUVEC/MSC, viability. The experiment in a line: Anticancer human tumor 485176-168-R4-J1-PDC patient-derived pancreatic adenocarcinoma cell line growth inhibition [GQUAD]. The settings on record: for viability, T/C: stronger effect = lower value. The text has this:
DNA G-quadruplex Stabilizer Agents in Combinations in Complex Spheroids
A high-throughput screen of multi-cell type tumor spheroids was designed to identify active combinations of DNA G-quadruplex stabilizer agents and targeted small molecules. Complex spheroids include a stromal component modeled by human endothelial cells (HUVEC) and fibroblasts modeled by human mesenchymal stem cells (MSCs). The concentration ranges selected for each drug and investigational agent were based upon clinically achievable concentrations if the clinical Cmax of the agent was known.
Compounds. The drugs and investigational agents: pidnarulex (CX-5461; NSC782164), APTO-253 (NSC789042), BRACO-19 (NSC847499), peposertib (NSC802822), ceralasertib (NSC780249), elimusertib (NSC800525), camonsertib (NSC841442), AZD-1390 (NSC803789), olaparib (NSC753686), talazoparib (NSC767125), ART-558 (NSC835418), sotorasib (NSC818433), MRTX-1133 (NSC836407), SN-38 (NSC673596), topotecan (NSC609699), etoposide (NSC141540), doxorubicin (NSC123127), gemcitabine (NSC613327), 5-fluorouracil (NSC19893), paclitaxel (NSC125973), vemurafenib (NSC761431), panobinostat (NSC761190), R-306465 (JNJ-16241199; NSC773264), adavosertib (NSC754352), TP-3654 (NSC805149), carboplatin (NSC241240), KSQ-4279 (NSC840948), and staurosporine (NSC755774) were obtained from the National Cancer Institute (NCI) Developmental Therapeutics Program Chemical Repository (34). The FDA-approved anticancer drug set is available from the NCI Developmental Therapeutics Program. […] The stock solutions were prepared in dimethyl sulfoxide (DMSO, Sigma-Aldrich, St. Louis, MO, cat. D2650) at 800-fold the tested concentration and stored at -70 degrees C prior to their use. All drugs and investigational agents were tested over a range starting from a high concentration at or near the clinical Cmax and decreasing in half-log increments. If the clinical Cmax for an agent had not been determined, the highest concentration tested was 10 microM.
2.3 Cell Culture. All cells were maintained in an incubator at 37 degrees C and 5% CO2 with 95% humidity. The PDC lines were cultured according to standard operating procedures established by the NCI PDMR. All PDCs were thawed and cultured in Matrigel-coated flasks prepared with a working solution of 1X Ham's F-12 nutrient mix, without supplementation (Invitrogen, cat. 11765054), 100 U/mL penicillin-streptomycin (Invitrogen, cat. 15140122), and 2.5% Matrigel (Corning Inc., cat. 354248) for the first three passages. The 857933-349-R-J2-PDC line was cultured in 6C/Colon 1B media, which includes advanced DMEM/F-12 (Thermo Fisher Scientific, cat. 12634028), 10 mM HEPES (Thermo Fisher Scientific, cat. 15630080), 1X GlutaMAX supplement (Thermo Fisher Scientific, cat. 35050061), 0.1 mg/mL primocin (InvivoGen, cat. ant-pm-2), 10% defined fetal bovine serum, heat inactivated (HyClone Laboratories Inc., cat. SH30070.03HI), 50% L-WRN conditioned media (ATCC, cat. CRL-3276), 1.25 mM N-Acetyl-L-cysteine (Sigma-Aldrich, cat. A9165), 10 mM nicotinamide (Sigma-Aldrich, cat. N0636), 1X B-27 supplement (Thermo Fisher Scientific, cat. 17504044), 1X N-2 supplement (Thermo Fisher Scientific, cat. 17502048), 10 microM Y-27632 dihydrochloride (Tocris Bioscience, cat. 1254), and 50 ng/mL human EGF recombinant protein (Thermo Fisher Scientific, cat. PHG0311). The 485176-168-R4-J1-PDC line was cultured in Panc media, which includes all 6C/Colon 1B media components plus 100 ng/mL human FGF-10 (Thermo Fisher Scientific, cat. 100-26), 500 nM SB-431542 (Selleckchem, cat. S1067), and gastrin (Tocris, cat. 3006).
[…]

[1] abbreviates: compound alone, run of 03/18/2024.
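Also: spheroids exposed to compounds for seven days before readout.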
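For viability, T/C in this document: percent viability relative to DMSO vehicle control wells as 100%.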

For the compound `Cc1[nH]c2ccc(F)cc2c1-c1nc2c3cccnc3c3ncccc3c2[nH]1`, the viability, T/C runs as follows: (compound 0.1 µM) 101% [middle of 12 runs]; (compound 0.316 µM) 97.9% [middle of 12 runs]; (compound 1 µM) 99.5% [middle of 12 runs]; (compound 10 µM) 78.8% [middle of 12 runs]. The IC50 runs as follows: under setting [1], over 10000 nM; (compound alone, run of 03/26/2024) over 10000 nM.
As to `Cc1cnc(CNC(=O)c2c(=O)c3ccc(N4CCCN(C)CC4)nc3n3c2sc2ccccc23)cn1`, the viability, T/C was 90.3% [middle of 12 runs] (compound 0.0316 µM); 78.8% [middle of 12 runs] (compound 0.1 µM); 64.4% [middle of 12 runs] (compound 0.316 µM); 55% [middle of 12 runs] (compound 1 µM); 39.6% [middle of 12 runs] (compound 3.16 µM); 36.6% [middle of 12 runs] (compound 10 µM). Besides, the concentration for half-maximal inhibition (IC50) under setting [1] was 1.17 µM [middle of 10 runs].
On to `CCCS(=O)(=O)Nc1ccc(F)c(C(=O)c2c[nH]c3ncc(-c4ccc(Cl)cc4)cc23)c1F`, for which the viability, T/C (compound 0.0316 µM) was 84.4% and 98.5% and 96.2%; the viability, T/C (compound 0.1 µM) is 94.7% and 85.4% and 64.8%; the viability, T/C (compound 0.316 µM) was 89.7% and 87.6% and 85%; the viability, T/C (compound 1 µM) was 82% and 83.2% and 77%; the viability, T/C (compound 3.16 µM) is 82.2% and 75.4% and 73.2%; the viability, T/C (compound 10 µM) is 71.2% and 70.3% and 66.2%. Also, the IC50 (curve of compound) is over 10000 nM.
Regarding `COc1ncnc(C2CC2)c1-c1ncc2cnn(Cc3ccc(-c4nc(C(F)(F)F)cn4C(C)C)cc3)c2n1`, the viability, T/C (compound 0.0316 µM) was 95.3% and 93.3% and 91.2%; the viability, T/C (compound 0.1 µM) is 96.5% and 107% and 90.4%; the viability, T/C (compound 0.316 µM) was 104% and 96.2% and 105%; the viability, T/C (compound 1 µM) is 84.1% and 92.2% and 106%; the viability, T/C (compound 3.16 µM) is 102% and 107% and 93.4%; the viability, T/C (compound 10 µM) was 103% and 106% and 98.5%. The half-maximal inhibitory concentration (IC50) (curve of compound) was over 10000 nM.
As to `CC(C)(O)C1CCC(Nc2ccc3ncc(-c4cccc(C(F)(F)F)c4)n3n2)CC1` (centres undefined) + Cc1cnc(CNC(=O)c2c(=O)c3ccc(N4CCCN(C)CC4)nc3n3c2sc2ccccc23)cn1, the IC50 was over 10000 nM (curve of first compound, second compound 0.0316 µM); 4380 nM (curve of first compound, second compound 0.1 µM); 1370 nM (curve of first compound, second compound 0.316 µM); 371 nM (curve of first compound, second compound 1 µM); 39.9 nM (curve of first compound, second compound 3.16 µM); under 31.6 nM (curve of first compound, second compound 10 µM). The viability, T/C (second compound 0.0316 µM, first compound 0.0316 µM) was 94.1%; the viability, T/C (second compound 0.0316 µM, first compound 0.1 µM) was 81.3%; the viability, T/C (second compound 0.0316 µM, first compound 0.316 µM) was 97.5%; the viability, T/C (second compound 0.0316 µM, first compound 1 µM) is 67%; the viability, T/C (second compound 0.0316 µM, first compound 3.16 µM) was 49.7%; the viability, T/C (second compound 0.0316 µM, first compound 10 µM) was 51.6%. In addition, the viability, T/C is 64.5% (second compound 0.1 µM, first compound 0.0316 µM); 71.7% (second compound 0.1 µM, first compound 0.1 µM); 57.6% (second compound 0.1 µM, first compound 0.316 µM); 65.8% (second compound 0.1 µM, first compound 1 µM); 47.2% (second compound 0.1 µM, first compound 3.16 µM); 44.8% (second compound 0.1 µM, first compound 10 µM). Further, the viability, T/C is 57.3% (second compound 0.316 µM, first compound 0.0316 µM); 55.1% (second compound 0.316 µM, first compound 0.1 µM); 58.9% (second compound 0.316 µM, first compound 0.316 µM); 54.1% (second compound 0.316 µM, first compound 1 µM); 38.4% (second compound 0.316 µM, first compound 3.16 µM); 39.7% (second compound 0.316 µM, first compound 10 µM). Further, the viability, T/C runs as follows: (second compound 1 µM, first compound 0.0316 µM) 49.2%; (second compound 1 µM, first compound 0.1 µM) 48.9%; (second compound 1 µM, first compound 0.316 µM) 54%; (second compound 1 µM, first compound 1 µM) 45.5%; (second compound 1 µM, first compound 3.16 µM) 31.4%; (second compound 1 µM, first compound 10 µM) 36.2%. The viability, T/C is, setting by setting: (second compound 3.16 µM, first compound 0.0316 µM) 52.5%; (second compound 3.16 µM, first compound 0.1 µM) 45%; (second compound 3.16 µM, first compound 0.316 µM) 43.3%; (second compound 3.16 µM, first compound 1 µM) 42.8%; (second compound 3.16 µM, first compound 3.16 µM) 25.2%; (second compound 3.16 µM, first compound 10 µM) 15.8%. Also, the viability, T/C by setting is: (second compound 10 µM, first compound 0.0316 µM) 43.4%; (second compound 10 µM, first compound 0.1 µM) 38.8%; (second compound 10 µM, first compound 0.316 µM) 41.6%; (second compound 10 µM, first compound 1 µM) 37.9%; (second compound 10 µM, first compound 3.16 µM) 0.55%; (second compound 10 µM, first compound 10 µM) 0.23%.

A word on the viability, T/C: it is the result in the treated group divided by that in the control group, in per cent. A word on the IC50: it is the point on the concentration scale where inhibition reaches its midpoint.
